Assays:
Type in all cases: cell-based
[1] = biological target: EP2 subtype of the human PGE2 receptor (Homo sapiens, UniProt P43116); test: cAMP antagonism test on the human EP2 receptor (HTRF cAMP detection); settings: hEP2 receptor, read-out: Antagonism hEP2 IC50
Outline: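 Read-out is a competitive HTRF for cAMP: lysate cAMP displaces cAMP-d2 from Eu cryptate-labelled antibody, and antagonism raises the 665/620 nm ratio. Compound (0.8 nM–16.5 μM) added to EP2 cells 20 min at RT before 60 min PGE2 challenge (3× stock 1.5 nM) with IBMX, followed by 20 min lysis.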

[2] = biological target: EP4 subtype of the human PGE2 receptor (Homo sapiens, UniProt P35408); test: cAMP antagonism test on the human EP4 receptor (HTRF cAMP detection); settings: selectivity towards hEP4, IC50 measured by cAMP antagonism test
Outline: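 Competitive HTRF cAMP read-out (cAMP-d2 vs Eu-cryptate anti-cAMP antibody, 665/620 nm ratio) on lysed human EP4 cells. Compound (0.8 nM–16.5 μM) applied 20 min at RT before 60 min PGE2 challenge (3× solution 0.3 nM, IBMX present); 20 min lysis precedes reading.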

[3] = biological target: T1, human PGD receptor (Homo sapiens, UniProt Q13258); test: cAMP antagonism test on the human prostaglandin D receptor (HTRF cAMP detection); settings: selectivity towards hDP, IC50 measured by cAMP antagonism test
T1 sequence (Q13258 1-359): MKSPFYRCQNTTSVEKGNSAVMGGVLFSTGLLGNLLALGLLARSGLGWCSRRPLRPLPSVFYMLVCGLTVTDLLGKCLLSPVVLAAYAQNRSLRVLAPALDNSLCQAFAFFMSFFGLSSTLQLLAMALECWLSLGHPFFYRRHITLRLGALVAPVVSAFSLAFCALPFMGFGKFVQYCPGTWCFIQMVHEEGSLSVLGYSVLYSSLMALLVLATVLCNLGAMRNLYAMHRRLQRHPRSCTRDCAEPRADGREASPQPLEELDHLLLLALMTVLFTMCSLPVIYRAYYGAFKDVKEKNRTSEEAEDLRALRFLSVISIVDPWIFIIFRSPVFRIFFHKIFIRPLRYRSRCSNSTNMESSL
Outline: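 HTRF competition read-out (665/620 nm ratio ×10000), where higher FRET means less cAMP, i.e. antagonism. Compounds (0.8 nM–16.5 μM) were preincubated 20 min at RT with cells and cAMP-d2, PGD2 (3× solution, 6 nM) in IBMX-containing PBS added for 30 min at RT, then cells lysed 20 min.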

Chain of EP2 subtype of the human PGE2 receptor (P43116 whole entry): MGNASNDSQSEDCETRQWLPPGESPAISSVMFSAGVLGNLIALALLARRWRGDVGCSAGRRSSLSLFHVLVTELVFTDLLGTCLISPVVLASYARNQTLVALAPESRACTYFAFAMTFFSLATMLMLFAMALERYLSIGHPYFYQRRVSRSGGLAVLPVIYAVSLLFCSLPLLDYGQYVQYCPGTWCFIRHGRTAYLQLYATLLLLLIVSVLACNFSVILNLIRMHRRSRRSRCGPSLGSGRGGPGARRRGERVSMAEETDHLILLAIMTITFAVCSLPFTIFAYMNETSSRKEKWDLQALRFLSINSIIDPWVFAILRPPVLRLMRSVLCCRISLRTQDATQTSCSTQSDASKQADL
Chain of EP4 subtype of the human PGE2 receptor (P35408 whole entry): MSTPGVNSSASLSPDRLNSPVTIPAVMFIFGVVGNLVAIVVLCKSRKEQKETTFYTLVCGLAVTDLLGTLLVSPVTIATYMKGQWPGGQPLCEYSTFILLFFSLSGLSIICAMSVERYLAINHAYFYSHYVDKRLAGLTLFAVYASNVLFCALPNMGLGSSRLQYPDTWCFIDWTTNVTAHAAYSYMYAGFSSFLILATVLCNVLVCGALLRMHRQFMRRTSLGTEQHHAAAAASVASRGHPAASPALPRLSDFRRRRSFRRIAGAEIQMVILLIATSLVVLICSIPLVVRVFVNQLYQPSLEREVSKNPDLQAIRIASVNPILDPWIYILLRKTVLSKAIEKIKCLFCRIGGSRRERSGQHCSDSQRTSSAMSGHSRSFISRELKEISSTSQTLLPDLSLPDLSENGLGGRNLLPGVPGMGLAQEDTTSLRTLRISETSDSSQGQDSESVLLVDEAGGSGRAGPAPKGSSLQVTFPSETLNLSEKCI

SMILES | IC50 [1] [nM] | Selectivity hEP2/hEP4 [2] | Selectivity hEP2/hDP [3]
COCCNC(=O)c1ccc2nn(CC3CCN(C(=O)c4ccc(OC5CCOCC5)cc4)CC3)cc2c1C [Example 353, N-(2-methoxyethyl)-4-methyl-2-({1-[4-(3,4,5,6-tetrahydro-2H-pyran-4-yloxy)-benzoyl]piperidin-4-yl}methyl)-2H-indazol-5-carboxamide] | 50.2 | xxx (xxx > 100) | xxx (xxx > 100)
Cc1c(C(=O)NCCN2CCOCC2)ccc2nn(CC3CCN(C(=O)c4ccc(OC(F)(F)F)cc4)CC3)cc12 [Example 59, 4-methyl-N-(2-morpholinoethyl)-2-({1-[4-(trifluoromethoxy)benzoyl]piperidin-4-yl}methyl)-2H-indazol-5-carboxamide] | 758 | xx (xx: 10-100) | xx (xx: 10-100)
Cc1c(C(=O)NCC2CCC2)ccc2nn(CC3CCN(C(=O)c4ccc(Oc5ccc(C(F)(F)F)cc5)cc4)CC3)cc12 [Example 403, N-(cyclobutylmethyl)-4-methyl-2-[(1-{4-[4-(trifluoromethyl)phenoxy]benzoyl}-piperidin-4-yl)methyl]-2H-indazol-5-carboxamide] | 9.59 | xxx (xxx > 100) | xxx (xxx > 100)
Cc1c(C(=O)NCC(F)(F)F)ccc2nn(CC3CN(C(=O)c4ccc(S(F)(F)(F)(F)F)cc4)C3)cc12 [Example 132, 4-methyl-2-({1-[4-(pentafluoro-λ^6-sulphanyl)benzoyl]azetidin-3-yl}methyl)-N-(2,2,2-trifluoroethyl)-2H-indazol-5-carboxamide] | 109 | xxx (xxx > 100) | xxx (xxx > 100)
COCCNC(=O)c1ccc2nn(CC3CCN(C(=O)c4ccc(Cl)cc4F)CC3)cc2c1OC [Example 271, 2-{[1-(4-chloro-2-fluorobenzoyl)piperidin-4-yl]methyl}-4-methoxy-N-(2-methoxyethyl)-2H-indazol-5-carboxamide] | 33.5 | xxx (xxx > 100) | xxx (xxx > 100)
COCCNC(=O)c1ccc2nn(CC3CCN(C(=O)c4ccc(C(F)(F)F)cc4)CC3)cc2c1C [Example 23, N-(2-methoxyethyl)-4-methyl-2-({1-[4-(trifluoromethyl)-benzoyl]piperidin-4-yl}methyl)-2H-indazol-5-carboxamide] | 16.1 | xxx (xxx > 100) | xxx (xxx > 100)
COCCNC(=O)c1ccc2nn(CC3CN(C(=O)c4ccc(Oc5ccc(F)cc5)cc4)C3)cc2c1C [Example 159, 2-({1-[4-(4-fluorophenoxy)benzoyl]azetidin-3-yl}methyl)-N-(2-methoxyethyl)-4-methyl-2H-indazol-5-carboxamide] | 6.24 | xxx (xxx > 100) | xxx (xxx > 100)
Cc1cc2nn(CC3CN(C(=O)c4ccc(OC(F)(F)F)cc4)C3)cc2cc1C(=O)NCCSC(F)(F)F [Example 194, 6-methyl-2-({1-[4-(trifluoromethoxy)benzoyl]azetidin-3-yl}methyl)-N-{2-[(trifluoromethyl)sulphanyl]ethyl}-2H-indazol-5-carboxamide] | 40.9 | xxx (xxx > 100) | xxx (xxx > 100)
COCCNC(=O)c1ccc2nn(CC3CCN(C(=O)c4ccc(Cl)cc4)CC3)cc2c1OC(F)F [Example 225, 2-{[1-(4-chlorobenzoyl)piperidin-4-yl]methyl}-4-(difluoromethoxy)-N-(2-methoxyethyl)-2H-indazol-5-carboxamide] | 14.3 | xxx (xxx > 100) | xxx (xxx > 100)
COCCNC(=O)c1ccc2nn(CC3CCN(C(=O)c4ccc(Oc5ccc(Cl)cc5)cc4)CC3)cc2c1C [Example 14, 2-({1-[4-(4-chloro-phenoxy)benzoyl]-piperidin-4-yl}-methyl)-N-(2-methoxyethyl)-4-methyl-2H-indazol-5-carboxamide] | 3.67 | xxx (xxx > 100) | xxx (xxx > 100)
COCCNC(=O)c1ccc2nn(CC3CCN(C(=O)c4ccc(-c5ccc(Cl)cc5C)cc4)CC3)cc2c1C [Example 371, 2-({1-[(4′-chloro-2′-methylbiphenyl-4-yl)carbonyl]piperidin-4-yl}methyl)-N-(2-methoxyethyl)-4-methyl-2H-indazol-5-carboxamide] | 6.11 | xxx (xxx > 100) | xxx (xxx > 100)
Cc1c(C(=O)NCC(F)(F)F)ccc2nn(CC3CCN(C(=O)c4nc5ccccc5s4)CC3)cc12 [Example 302, 2-{[1-(benzothiazol-2-ylcarbonyl)piperidin-4-yl]methyl}-4-methyl-N-(2,2,2-trifluoroethyl)-2H-indazol-5-carboxamide] | 131 | xxx (xxx > 100) | xxx (xxx > 100)
COCCNC(=O)c1ccc2nn(CC3CCN(C(=O)c4ccc(Oc5cccnc5)cc4)CC3)cc2c1C [Example 343, N-(2-methoxyethyl)-4-methyl-2-({1-[4-(3-pyridyloxy)benzoyl]piperidin-4-yl}methyl)-2H-indazol-5-carboxamide] | 42.4 | xxx (xxx > 100) | xxx (xxx > 100)
COCCNC(=O)c1cc2cn(CC3CN(C(=O)c4ccc(Cl)cc4)C3)nc2cc1C [Example 178, 2-{[1-(4-chlorobenzoyl)azetidin-3-yl]methyl}-N-(2-methoxyethyl)-6-methyl-2H-indazol-5-carboxamide] | 68.3 | xxx (xxx > 100) | xxx (xxx > 100)
Cc1c(C(=O)NCCS(C)(=O)=O)ccc2nn(CC3CCN(C(=O)c4ccc(-c5ccc(F)cc5F)cc4)CC3)cc12 [Example 398, 2-({1-[(2′,4′-difluorobiphenyl-4-yl)carbonyl]piperidin-4-yl}methyl)-N-(2-mesylethyl)-4-methyl-2H-indazol-5-carboxamide] | 18.2 | xxx (xxx > 100) | xxx (xxx > 100)
COCCNC(=O)c1ccc2nn(CC3CCN(C(=O)c4ccc(Oc5cccc(C(F)(F)F)n5)cc4)CC3)cc2c1C [Example 350, N-(2-methoxyethyl)-4-methyl-2-{[1-(4-{[6-(trifluoromethyl)pyridin-2-yl]oxy}-benzoyl)piperidin-4-yl]methyl}-2H-indazol-5-carboxamide] | 8.41 | xxx (xxx > 100) | xxx (xxx > 100)
Cc1cc2nn(CC3CN(C(=O)c4ccc(Oc5ccc(C(F)(F)F)cc5)cc4)C3)cc2cc1C(=O)NCC(F)(F)F [Example 201, 6-methyl-N-(2,2,2-trifluoroethyl)-2-[(1-{4-[4-(trifluoromethyl)phenoxy]benzoyl}azetidin-3-yl)methyl]-2H-indazol-5-carboxamide] | 24.9 | xxx (xxx > 100) | xxx (xxx > 100)
Cc1cc2nn(CC3CN(C(=O)c4ccc(-c5ccc(F)cc5)cc4)C3)cc2cc1C(=O)NCC(F)(F)F [Example 203, 2-({1-[(4′-fluorobiphenyl-4-yl)carbonyl]azetidin-3-yl}methyl)-6-methyl-N-(2,2,2-trifluoroethyl)-2H-indazol-5-carboxamide] | 85.7 | xxx (xxx > 100) | xxx (xxx > 100)
COCCNC(=O)c1ccc2nn(CC3CCN(C(=O)c4ccc(-c5cc(F)cc(F)c5)c(C)c4)CC3)cc2c1C [Example 391, 2-({1-[(3′,5′-difluoro-2-methylbiphenyl-4-yl)carbonyl]piperidin-4-yl}methyl)-N-(2-methoxyethyl)-4-methyl-2H-indazol-5-carboxamide] | 6.07 | xxx (xxx > 100) | xxx (xxx > 100)
COCCNC(=O)c1ccc2nn(CC3CCN(C(=O)c4ccc(-c5ccc(F)cc5)cc4)CC3)cc2c1OC(F)F [Example 227, 4-(difluoromethoxy)-2-({1-[(4′-fluorobiphenyl-4-yl)carbonyl]piperidin-4-yl}methyl)-N-(2-methoxyethyl)-2H-indazol-5-carboxamide] | 9.89 | xxx (xxx > 100) | xxx (xxx > 100)
COCCNC(=O)c1ccc2nn(CC3CCN(C(=O)c4ccc(-c5ccc(Cl)cn5)cc4)CC3)cc2c1C [Example 368, 2-({1-[4-(5-chloropyridin-2-yl)benzoyl]piperidin-4-yl}methyl)-N-(2-methoxy-ethyl)-4-methyl-2H-indazol-5-carboxamide] | 12 | xxx (xxx > 100) | xxx (xxx > 100)
